In patent US11084814B2, “Pyrido[3, 4-d]pyrimidine derivative and pharmaceutically acceptable salt thereof” (Teijin Pharma Limited, priority 2016, dated 2021):

What was measured:
[1] = molecular target: T1, CDK4/cyclin D3 (Homo sapiens, UniProt P11802); experiment: Human CDK4/cyclin D3 inhibitory activity (QS S Assist CDK4/Cyclin D3_FP Kit, IMAP fluorescent polarization); assay type: biochemical; settings: read-out: CDK4 Activity symbol
T1 construct: purchased Carna Biosciences, Inc. QS S Assist CDK4/Cyclin D3_FP Kit
T1 sequence (P11802 whole entry): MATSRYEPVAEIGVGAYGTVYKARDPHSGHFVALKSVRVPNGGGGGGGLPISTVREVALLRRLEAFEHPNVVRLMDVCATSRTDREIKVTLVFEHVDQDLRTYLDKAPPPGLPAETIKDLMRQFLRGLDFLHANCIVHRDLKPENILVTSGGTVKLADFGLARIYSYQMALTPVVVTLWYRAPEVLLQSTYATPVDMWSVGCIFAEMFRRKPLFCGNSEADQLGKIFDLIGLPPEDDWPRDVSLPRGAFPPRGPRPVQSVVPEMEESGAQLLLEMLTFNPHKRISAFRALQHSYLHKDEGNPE
T1 sequence (P30281 whole entry partner): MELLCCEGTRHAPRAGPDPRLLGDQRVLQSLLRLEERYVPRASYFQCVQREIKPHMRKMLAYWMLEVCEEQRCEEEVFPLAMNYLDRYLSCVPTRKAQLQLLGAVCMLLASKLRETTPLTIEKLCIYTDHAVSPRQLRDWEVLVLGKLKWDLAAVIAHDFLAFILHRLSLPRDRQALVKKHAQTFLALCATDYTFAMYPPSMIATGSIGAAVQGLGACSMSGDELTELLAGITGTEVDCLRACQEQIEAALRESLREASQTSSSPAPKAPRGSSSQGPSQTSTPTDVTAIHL
Outline: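 Kinase reactions used kit CDK4/cyclin D3 at 12.5–25 ng/well with the kit ATP/substrate/metal mix in 20 mM HEPES (pH 7.4), 0.01% Tween20 and 2 mM DTT, run 45 min at room temperature. Phosphorylation was detected by IMAP fluorescence polarization (ex 485/em 535 nm) after 30 min binding in the dark. IC50 was fitted from percent inhibition against DMSO controls with and without enzyme.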

[2] = molecular target: T2, CDK2/cyclin A2 (Homo sapiens, UniProt P24941); experiment: Human CDK2/cyclin A2 inhibitory activity (QS S Assist CDK2/Cyclin A2_FP Kit, IMAP fluorescent polarization); assay type: biochemical; settings: read-out: CDK2 Activity symbol
T2 construct: purchased Carna Biosciences, Inc. QS S Assist CDK2/Cyclin A2_FP Kit
Outline: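 Kit CDK2/cyclin A2 (2.5 ng/well) was reacted with kit ATP/substrate/metal in 20 mM HEPES pH 7.4, 0.01% Tween 20 and 2 mM DTT for 60 min at room temperature. IMAP binding reagent was added for 30 min, then fluorescence polarization was read at 485/535 nm. IC50 came from dose-response fitting of percent inhibition.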

IC50 [1] [nM] | IC50 [2] [nM] | Structure (SMILES)
< 10 | ≥ 100 | C[C@@H](O)c1cc2cnc(Nc3ccc4c(n3)CCN(C(=O)[C@H]3CCN3)C4)nc2c(N2CCCCC2)n1 [Compound 215]
< 10 | ≥ 100 | OCCc1cc2cnc(Nc3ccc(CN4CCNCC4)cn3)nc2c(N2CCCCC2)n1 [Compound 92]
< 10 | ≥ 100 | C[C@@H](O)c1cc2cnc(Nc3ccc4c(n3)CCN(CCN(C)C)C4)nc2c(N2CCC(F)(F)CC2)n1 [Compound 82]
10 to 100 | ≥ 100 | C[C@H](CO)c1cc2cnc(Nc3ccc4c(n3)CCNC4)nc2c(N2CCCCC2)n1 [Compound 166]
< 10 | ≥ 100 | Cc1nc(Nc2ncc3cc([C@@H](C)O)nc(N4CCCCC4)c3n2)ccc1N1CCN(C2CN(CCO)C2)CC1 [Compound 328]
< 10 | ≥ 100 | C[C@@H](O)c1cc2cnc(Nc3ccc(OC4CCN(CCO)CC4)cn3)nc2c(N2CC[C@@H](F)C2)n1 [Compound 219]
10 to 100 | ≥ 100 | C[C@H](O)Cc1cc2cnc(Nc3ccc(CN4CCN(CCO)CC4)cn3)nc2c(N2CCCCC2)n1 [Compound 202]
< 10 | ≥ 100 | CC[C@H](O)c1cc2cnc(Nc3ccc(CN4CCN(CCO)CC4)cn3)nc2c(N2CCC[C@H]2C)n1 [Compound 248]
< 10 | ≥ 100 | C[C@@H](O)c1cc2cnc(Nc3ccc(CN4CCN(C)CC4)cn3)nc2c(N2CC[C@H](F)C2)n1 [Compound 117]
10 to 100 | ≥ 100 | C[C@@H](O)c1cc2cnc(Nc3ccc(CN4CCN(CCO)C(=O)C4)cn3)nc2c(N2CCCCC2)n1 [Compound 249]
< 10 | ≥ 100 | C[C@@H](O)c1cc2cnc(Nc3ccc(C(=O)N4CCN(C)CC4)cn3)nc2c(N2CCCCC2)n1 [Compound 309]
< 10 | ≥ 100 | C[C@@H](O)c1cc2cnc(Nc3ccc(N4CCNCC4)nn3)nc2c(N2CCCCC2)n1 [Compound 91]
< 10 | ≥ 100 | C[C@@H](O)c1cc2cnc(Nc3ccc(N4CCN(C)CCC4=O)cn3)nc2c(N2CCCC2)n1 [Compound 120]
< 10 | ≥ 100 | C[C@@H](O)c1cc2cnc(Nc3ccc(CN4CCN(CCO)CC4)cn3)nc2c(N2CCC[C@@H](F)C2)n1 [Compound 199]
10 to 100 | ≥ 100 | OC(c1cc2cnc(Nc3ccc(N4CCNCC4)cn3)nc2c(N2CCOCC2)n1)C(F)(F)F (stereo not shown) [Compound 35, 2,2,2-trifluoro-1-(8-morpholino-2-((5-(piperazin-1-yl)pyridin-2-yl)amino)pyrido[3,4-d]pyrimidin-6-yl)ethanol]
< 10 | ≥ 100 | C[C@@H](O)c1cc2cnc(Nc3ccc4c(n3)CCN(CCN3CCOCC3)C4)nc2c(N2CCCCC2)n1 [Compound 162]
< 10 | ≥ 100 | C[C@@H](O)c1cc2cnc(Nc3ccc4c(n3)CCN(C3CNC3)C4)nc2c(N2CCCCC2)n1 [Compound 175]
< 10 | ≥ 100 | CC1CCC(C)N1c1nc([C@@H](C)O)cc2cnc(Nc3ccc(CN4CCN(CCO)CC4)cn3)nc12 (stereo partly shown) [Compound 101]
10 to 100 | ≥ 100 | C[C@@H](CO)c1cc2cnc(Nc3ccc4c(n3)CCN(CCO)C4)nc2c(N2CCCCC2)n1 [Compound 171]
10 to 100 | ≥ 100 | C[C@@H](O)c1cc2cnc(Nc3ccc(CN4CCN(C)CC4)cn3)nc2c(N2CCC[C@@H]2C)n1 [Compound 137]
10 to 100 | ≥ 100 | C[C@@H](O)c1cc2cnc(Nc3ccc4c(n3)CCN([C@H]3CC[C@@H](O)CC3)C4)nc2c(N2CCCCC2)n1 [Compound 284]
< 10 | ≥ 100 | C[C@@H](O)c1cc2cnc(Nc3ccc(CN4CCN(CCO)CC4)cn3)nc2c(N2CCCCCC2)n1 [Compound 59]
< 10 | ≥ 100 | C[C@@H](O)c1cc2cnc(Nc3ccc(N4CCNCC4)nn3)nc2c(N2CCCC(C(=O)O)C2)n1 (stereo partly shown) [Compound 40]
< 10 | ≥ 100 | C[C@@H](O)c1cc2cnc(Nc3ccc4c(n3)CCNC4)nc2c(N2CCCCC2)n1 [Compound 62]

IC50 [1] [nM] | IC50 [2] [nM] | Structure (SMILES)
< 10 | ≥ 100 | O=C1CNCCN1c1ccc(Nc2ncc3cc(CO)nc(N4CCCCC4)c3n2)nc1 [Compound 97]
10 to 100 | ≥ 100 | C[C@@H](O)c1cc2cnc(Nc3ccc(CN4CCC(CO)CC4)cn3)nc2c(N2CCOCC2)n1 [Compound 70]
< 10 | ≥ 100 | C[C@@H](O)c1cc2cnc(Nc3ccc4c(n3)CCN(CCN(C)C)C4)nc2c(N2CCCCC2)n1 [Compound 60]
< 10 | ≥ 100 | C[C@@H](O)c1cc2cnc(Nc3ccc(CN4CCN(C)CC4)cn3)nc2c(N2CCOC[C@@H]2C)n1 [Compound 290]
< 10 | ≥ 100 | C[C@@H](O)c1cc2cnc(Nc3ccc4c(n3)CCN(C(=O)[C@H]3CCCN3)C4)nc2c(N2CCCCC2)n1 [Compound 209]
< 10 | ≥ 100 | CC[C@@H](O)c1cc2cnc(Nc3ccc(CN4CCN(CCO)CC4)cn3)nc2c(N2CCC[C@H]2C)n1 [Compound 247]
< 10 | ≥ 100 | Cc1nc(Nc2ncc3cc([C@@H](C)O)nc(N4CC[C@H](C)C4)c3n2)ccc1N1CCNCC1=O [Compound 261]
10 to 100 | ≥ 100 | C[C@@H](O)Cc1cc2cnc(Nc3ccc(CN4CCN(CCO)CC4)cn3)nc2c(N2CCCCC2)n1 [Compound 168]
< 10 | ≥ 100 | C[C@@H](O)c1cc2cnc(Nc3ccc(CN4CCN(C)CC4)cn3)nc2c(N2CCCCCC2)n1 [Compound 158]
10 to 100 | ≥ 100 | CC[C@@H](O)c1cc2cnc(Nc3ccc(CN4CCN(CCO)CC4)cn3)nc2c(N2CCCCC2)n1 [Compound 159]
10 to 100 | ≥ 100 | C[C@H](O)Cc1cc2cnc(Nc3ccc4c(n3)CCN(CCO)C4)nc2c(N2CCCCC2)n1 [Compound 204]
< 10 | ≥ 100 | C[C@@H](O)c1cc2cnc(Nc3ccc(CN4CCC5(CC4)COC5)cn3)nc2c(N2CCCCC2)n1 [Compound 325]
10 to 100 | ≥ 100 | CC(O)c1cc2cnc(Nc3ccc(N4CCNCC4=O)cn3)nc2c(N2CCOCC2C)n1 (stereo not shown) [Compound 300]
10 to 100 | ≥ 100 | CNC(=O)c1cc2cnc(Nc3ccc(N4CCNCC4)cn3)nc2c(N2CCCCC2)n1 [Compound 29]
< 10 | ≥ 100 | C[C@H]1CCN(c2nc([C@@H](C)O)cc3cnc(Nc4ccc(CN5CCN(CCO)CC5)cn4)nc23)C1 [Compound 99]
< 10 | ≥ 100 | OCc1cc2cnc(Nc3ccc(N4CCNCC4)nn3)nc2c(N2CCCCC2)n1 [Compound 107]
< 10 | ≥ 100 | C[C@@H](O)c1cc2cnc(Nc3ccc(CN4CCN(C)[C@@H](C)C4)cn3)nc2c(N2CCCCC2)n1 [Compound 188]
< 10 | ≥ 100 | C[C@@H](O)c1cc2cnc(Nc3ccc(CN4CCC(CO)CC4)cn3)nc2c(N2CCCC2)n1 [Compound 69]
< 10 | ≥ 100 | CCC(O)c1cc2cnc(Nc3ccc(CN4CCN(C)CC4)cn3)nc2c(N2CCCCC2)n1 (stereo not shown) [Compound 146]
< 10 | ≥ 100 | CC(O)c1cc2cnc(Nc3ccc(N4CCNCC4)cn3)nc2c(N2CCOCC2C)n1 (stereo not shown) [Compound 289]
10 to 100 | ≥ 100 | FC(F)c1cc2cnc(Nc3ccc(N4CCNCC4)cn3)nc2c(N2CCOCC2)n1 [Compound 8]
< 10 | ≥ 100 | CC1CN(c2nc([C@@H](C)O)cc3cnc(Nc4ccc(CN5CCN(C)CC5)cn4)nc23)CC1C (stereo partly shown) [Compound 141]
< 10 | 10 to 100 | Cc1nc(Nc2ncc3cc([C@@H](C)O)nc(N4CCCCC4)c3n2)ccc1N1CCCNCC1=O [Compound 305]
10 to 100 | ≥ 100 | C[C@@H](O)c1cc2cnc(Nc3ccc4c(n3)CCN([C@H]3CC[C@H](O)CC3)C4)nc2c(N2CCCCC2)n1 [Compound 283]

Structure (SMILES) | IC50 [1] [nM] | IC50 [2] [nM]
C[C@@H](O)c1cc2cnc(Nc3ccc(CN4CCN(C)C[C@@H]4C)cn3)nc2c(N2C3CCC2CC3)n1 [Compound 187] | < 10 | ≥ 100
CC(O)c1cc2cnc(Nc3ccc4c(n3)CCN(C(=O)C3CCCCN3C)C4)nc2c(N2C3CCC2CC3)n1 (stereo not shown) [Compound 238] | < 10 | ≥ 100
C[C@@H](O)c1cc2cnc(Nc3ccc4c(n3)CCN(C(=O)C3CN(C)C3)C4)nc2c(N2C3CCC2CC3)n1 [Compound 239] | < 10 | ≥ 100
Cc1nc(Nc2ncc3cc([C@@H](C)O)nc(N4C5CCC4COC5)c3n2)ccc1N1CCNCC1 [Compound 298] | < 10 | ≥ 100
CC(O)c1cc2cnc(Nc3ccc(N4CCCNCC4=O)cn3)nc2c(N2C3CCCC2CC3)n1 (stereo not shown) [Compound 329] | < 10 | 10 to 100
CC(O)c1cc2cnc(Nc3ccc(N4CCNCC4=O)cn3)nc2c(N2C3CCC2COC3)n1 (stereo not shown) [Compound 301] | 10 to 100 | ≥ 100
C[C@@H](O)c1cc2cnc(Nc3ccc4c(n3)CCN(C(=O)CN3CCC3)C4)nc2c(N2C3CCC2CC3)n1 [Compound 230] | < 10 | ≥ 100
C[C@@H](O)c1cc2cnc(Nc3ccc4c(n3)CCN(C(=O)[C@@H]3C[C@@H](O)CN3C)C4)nc2c(N2C3CCC2CC3)n1 [Compound 227] | < 10 | ≥ 100
